According to ChEMBL document CHEMBL3232948 (J Med Chem, 2014):
The source made the active and inactive calls. The calls are words filed in the database; no cut-off is given here.

Legend:
[1] = target: Neuraminidase (Influenza A virus) (UniProt B4URF0); experiment: Inhibition of Influenza A virus (A/California/04/2009(H1N1)) wild-type neuraminidase using MU-NANA as substrate at 1000 nM after 1 hr
Neuraminidase [2] = target: T1, Neuraminidase (Influenza A virus, UniProt B4URF0); experiment: Inhibition of Influenza A virus SN33 H1N1 neuraminidase using MU-NANA as substrate after 1 hr by spectrofluorometric analysis
Neuraminidase [3] = target: T1, Neuraminidase; design: species or system Influenza A virus (A/California/04/2009(H1N1))
Neuraminidase [4] = target: T1, Neuraminidase; design: species or system Influenza A virus (A/Anhui/1/2005(H5N1))

T1 sequence (B4URF0 whole entry): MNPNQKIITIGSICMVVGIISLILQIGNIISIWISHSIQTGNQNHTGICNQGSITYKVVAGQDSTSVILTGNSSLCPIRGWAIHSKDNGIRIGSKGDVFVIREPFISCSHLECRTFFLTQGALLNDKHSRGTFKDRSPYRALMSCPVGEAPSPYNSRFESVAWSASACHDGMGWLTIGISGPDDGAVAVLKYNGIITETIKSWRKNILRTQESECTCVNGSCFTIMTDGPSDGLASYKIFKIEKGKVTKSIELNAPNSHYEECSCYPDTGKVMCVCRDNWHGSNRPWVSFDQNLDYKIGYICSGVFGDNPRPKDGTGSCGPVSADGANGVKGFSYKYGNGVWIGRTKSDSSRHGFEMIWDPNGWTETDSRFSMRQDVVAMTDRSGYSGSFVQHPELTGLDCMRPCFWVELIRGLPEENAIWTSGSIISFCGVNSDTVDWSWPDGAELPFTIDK
Sequence of Neuraminidase (Influenza A virus) (B4URF0 as listed by the source): as the sequence (B4URF0 whole entry) above

| Compound | inhibition [1] | other results |
| --- | --- | --- |
| CCC(CC)O[C@@H]1C=C(C(=O)O)C[C@H](N/C(N)=N/C2CC2)[C@H]1NC(C)=O | inactive | – |
| CCC/N=C(\N)N[C@H]1CC(C(=O)O)=C[C@@H](OC(CC)CC)[C@@H]1NC(C)=O | inactive | – |
| CC(=O)N[C@H]1C([C@H](O)[C@H](O)CO)OC(C(=O)O)=C[C@@H]1NC(=N)NC(=O)CSc1ccc2ccccc2c1 (stereo partly specified) | – | IC50 (Neuraminidase [2]): 20 nM |
| CCC(CC)O[C@@H]1C=C(C(=O)O)C[C@H](N/C(N)=N/CC(F)(F)F)[C@H]1NC(C)=O | inactive | – |
| C=CC/N=C(\N)N[C@H]1CC(C(=O)O)=C[C@@H](OC(CC)CC)[C@@H]1NC(C)=O | inactive | – |
| CCC(CC)O[C@@H]1C=C(C(=O)O)C[C@H](N/C(N)=N/C)[C@H]1NC(C)=O | – | IC50 (Neuraminidase [3]): 1.73 nM; IC50 (Neuraminidase [4]): 3.6 nM |
| CC/N=C(\N)N[C@H]1CC(C(=O)O)=C[C@@H](OC(CC)CC)[C@@H]1NC(C)=O | inactive | – |
| CCC(CC)O[C@@H]1C=C(C(=O)O)C[C@H](N/C(N)=N/C(C)C)[C@H]1NC(C)=O | inactive | – |
| CCC(CC)O[C@@H]1C=C(C(=O)O)C[C@H](N/C(N)=N/O)[C@H]1NC(C)=O | – | IC50 (Neuraminidase [3]): 3.7 nM; IC50 (Neuraminidase [4]): 33 nM |
